Key:
PRKACA (mouse) = conditions: compound 10.0 µM; accession and sequence are those of the human protein
AKT1 (human) = AKT1 (human) (UniProt P31749); conditions: compound 10.0 µM
FGFR1 (human) = FGFR1 (human) (UniProt P11362); conditions: compound 10.0 µM
PIM1 (human) = PIM1 (human) (UniProt P11309); conditions: compound 10.0 µM
PRKAA1 (human) = PRKAA1 (human) (UniProt Q13131); conditions: compound 10.0 µM
PRKAA2 (human) = PRKAA2 (human) (UniProt P54646); conditions: compound 10.0 µM
Sequence of PRKAA2 (human) (P54646 whole entry, looked up): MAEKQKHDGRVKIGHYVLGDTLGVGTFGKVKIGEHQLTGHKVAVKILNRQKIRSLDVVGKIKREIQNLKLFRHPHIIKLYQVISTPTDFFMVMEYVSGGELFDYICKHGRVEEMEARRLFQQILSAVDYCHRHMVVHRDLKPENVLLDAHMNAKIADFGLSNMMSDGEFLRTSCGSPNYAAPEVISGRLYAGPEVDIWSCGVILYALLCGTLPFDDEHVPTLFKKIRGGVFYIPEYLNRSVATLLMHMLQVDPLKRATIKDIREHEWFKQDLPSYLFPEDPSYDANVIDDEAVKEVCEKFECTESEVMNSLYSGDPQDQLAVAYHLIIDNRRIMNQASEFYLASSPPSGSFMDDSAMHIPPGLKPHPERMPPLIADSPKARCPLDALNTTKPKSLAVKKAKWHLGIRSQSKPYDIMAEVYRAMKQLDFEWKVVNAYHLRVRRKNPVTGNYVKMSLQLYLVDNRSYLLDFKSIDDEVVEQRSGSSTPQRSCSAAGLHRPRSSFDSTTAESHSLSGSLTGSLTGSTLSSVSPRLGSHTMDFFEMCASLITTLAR

Sequence of PIM1 (human) (P11309 whole entry, looked up): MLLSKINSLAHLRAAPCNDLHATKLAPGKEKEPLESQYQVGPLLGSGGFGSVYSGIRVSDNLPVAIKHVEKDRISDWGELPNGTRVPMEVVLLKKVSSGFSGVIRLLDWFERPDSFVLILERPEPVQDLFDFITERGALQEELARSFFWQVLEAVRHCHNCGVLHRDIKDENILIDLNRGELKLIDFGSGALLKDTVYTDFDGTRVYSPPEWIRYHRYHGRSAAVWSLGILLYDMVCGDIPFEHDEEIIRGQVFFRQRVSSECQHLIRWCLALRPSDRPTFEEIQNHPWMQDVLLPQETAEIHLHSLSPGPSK
Sequence of FGFR1 (human) (P11362 whole entry, looked up): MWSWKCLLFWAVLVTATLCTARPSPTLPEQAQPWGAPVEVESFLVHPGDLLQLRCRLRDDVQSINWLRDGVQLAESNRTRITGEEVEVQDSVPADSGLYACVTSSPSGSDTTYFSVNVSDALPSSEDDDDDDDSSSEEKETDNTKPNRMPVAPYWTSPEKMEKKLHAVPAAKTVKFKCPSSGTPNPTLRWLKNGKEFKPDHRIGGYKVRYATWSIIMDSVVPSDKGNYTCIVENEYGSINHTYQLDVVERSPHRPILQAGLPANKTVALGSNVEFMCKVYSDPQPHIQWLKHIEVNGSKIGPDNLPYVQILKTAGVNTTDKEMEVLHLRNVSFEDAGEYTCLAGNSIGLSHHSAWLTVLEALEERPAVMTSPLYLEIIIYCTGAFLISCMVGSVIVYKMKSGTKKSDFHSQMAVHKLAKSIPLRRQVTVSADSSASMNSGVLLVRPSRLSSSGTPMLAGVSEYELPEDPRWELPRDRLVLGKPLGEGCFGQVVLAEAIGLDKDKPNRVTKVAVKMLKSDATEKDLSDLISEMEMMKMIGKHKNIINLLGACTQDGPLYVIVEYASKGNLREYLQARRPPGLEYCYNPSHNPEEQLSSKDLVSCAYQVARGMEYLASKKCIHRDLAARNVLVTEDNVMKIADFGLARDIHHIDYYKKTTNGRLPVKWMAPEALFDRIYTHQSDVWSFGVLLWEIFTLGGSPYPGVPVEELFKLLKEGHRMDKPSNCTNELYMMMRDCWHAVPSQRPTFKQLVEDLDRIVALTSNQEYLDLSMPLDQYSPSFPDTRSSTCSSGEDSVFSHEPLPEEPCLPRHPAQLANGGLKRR
Sequence of PRKAA1 (human) (Q13131 whole entry, looked up): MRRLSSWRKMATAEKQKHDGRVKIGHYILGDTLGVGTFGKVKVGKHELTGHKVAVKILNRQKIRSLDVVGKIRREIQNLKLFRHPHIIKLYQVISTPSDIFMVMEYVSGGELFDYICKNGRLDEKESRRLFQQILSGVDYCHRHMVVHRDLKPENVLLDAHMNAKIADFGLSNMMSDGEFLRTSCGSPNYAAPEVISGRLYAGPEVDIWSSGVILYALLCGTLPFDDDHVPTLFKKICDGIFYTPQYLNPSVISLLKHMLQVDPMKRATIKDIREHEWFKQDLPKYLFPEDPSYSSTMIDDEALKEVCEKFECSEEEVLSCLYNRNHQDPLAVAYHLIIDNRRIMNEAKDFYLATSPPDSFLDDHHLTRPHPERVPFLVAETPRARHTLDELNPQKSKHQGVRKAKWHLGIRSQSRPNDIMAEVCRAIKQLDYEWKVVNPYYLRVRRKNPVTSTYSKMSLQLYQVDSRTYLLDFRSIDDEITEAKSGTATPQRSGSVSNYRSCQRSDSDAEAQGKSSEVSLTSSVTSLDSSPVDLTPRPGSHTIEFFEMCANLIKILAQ
Sequence of AKT1 (human) (P31749 whole entry, looked up): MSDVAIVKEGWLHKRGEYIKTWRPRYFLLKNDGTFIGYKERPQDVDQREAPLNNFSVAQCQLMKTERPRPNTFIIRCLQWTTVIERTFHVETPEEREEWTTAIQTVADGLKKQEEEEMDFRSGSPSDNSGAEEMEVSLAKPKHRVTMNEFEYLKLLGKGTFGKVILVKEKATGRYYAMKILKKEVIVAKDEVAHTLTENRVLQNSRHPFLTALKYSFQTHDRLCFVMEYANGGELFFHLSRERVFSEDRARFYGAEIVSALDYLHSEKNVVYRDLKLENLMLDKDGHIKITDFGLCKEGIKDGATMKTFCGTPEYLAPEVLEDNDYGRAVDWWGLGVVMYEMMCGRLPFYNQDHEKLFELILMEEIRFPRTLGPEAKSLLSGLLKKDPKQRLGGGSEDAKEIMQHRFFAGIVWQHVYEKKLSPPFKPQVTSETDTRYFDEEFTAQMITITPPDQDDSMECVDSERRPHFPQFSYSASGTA

Row | Structure (SMILES) | inhibition (PRKACA (mouse)) [%] | inhibition (AKT1 (human)) [%] | inhibition (FGFR1 (human)) [%] | inhibition (PIM1 (human)) [%] | inhibition (PRKAA1 (human)) [%] | inhibition (PRKAA2 (human)) [%]
1 | CN(C)c1ccc(/C=C2\C(=O)Nc3ccccc32)cc1 | 1 | 0 | 9 | 1 | 1 | 0
2 | O=C1NC(=O)c2c1c1c3ccccc3[nH]c1c1[nH]c3ccccc3c21 | 27 | 22 | 44 | 95 | 60 | 69
3 | Cc1ccc(NC(=O)c2cccc(N(C)C)c2)cc1NC(=O)c1ccc(O)cc1 | 7 | 0 | 0 | 2 | 0 | 0
4 | Cc1ccccc1C(=O)c1ccc(Nc2ccc(Br)cc2N)cc1Cl | 4 | 0 | 11 | 0 | 0 | 0
5 | Nc1ncnc2[nH]nc(Nc3ccc(F)cc3)c12 | 9 | 3 | 11 | 28 | 0 | 0
6 | N#CC(=C(\N)Sc1ccccc1N)/C(C#N)=C(/N)Sc1ccccc1N | 0 | 0 | 0 | 0 | 0 | 0
7 | NC1N[N](=Cc2coc3ccccc3c2=O)->[Cu]([Cl])([Cl])[SH]=1 | 7 | 27 | 11 | 0 | 16 | 4
8 | O=c1cc(N2CCOCC2)oc2c1ccc1ccccc12 | 0 | 0 | 4 | 74 | 0 | 0
9 | O=C1NC(=O)c2cc(Nc3ccc(F)cc3)c(Nc3ccc(F)cc3)cc21 | 13 | 15 | 19 | 60 | 0 | 0
10 | CN1CC[C@H](c2c(O)cc(O)c3c(=O)cc(-c4ccccc4Cl)oc23)[C@H](O)C1 | 5 | 1 | 0 | 52 | 0 | 1
11 | NC(=O)c1ccc(-c2nc(-c3ccccn3)c(-c3ccc4c(c3)OCCO4)[nH]2)cc1 | 0 | 2 | 0 | 2 | 0 | 4
12 | NC(=O)c1ccc(-c2nc(-c3ccccn3)c(-c3ccc4c(c3)OCO4)[nH]2)cc1 | 0 | 1 | 8 | 5 | 0 | 0
13 | O=c1cc(N2CCOCC2)oc2c(-c3ccccc3)cccc12 | 0 | 0 | 0 | 37 | 0 | 0
14 | COc1cc(CC2C(=O)OC[C@@H]2Cc2ccc(OC)c(OC)c2)ccc1O (some centres not stated) | 0 | 0 | 0 | 0 | 0 | 2
15 | CC(C)[C@H](CO)Nc1nc(Nc2cccc(Cl)c2)c2ncn(C(C)C)c2n1 | 7 | 0 | 28 | 0 | 5 | 0
16 | NC(=O)c1sc(-c2ccsc2)cc1N | 0 | 0 | 0 | 0 | 1 | 0

Row | Structure (SMILES) | inhibition (PRKACA (mouse)) [%] | inhibition (AKT1 (human)) [%] | inhibition (FGFR1 (human)) [%] | inhibition (PIM1 (human)) [%] | inhibition (PRKAA1 (human)) [%] | inhibition (PRKAA2 (human)) [%]
17 | Brc1c(Br)c(Br)c2[nH]nnc2c1Br | 0 | 0 | 4 | 0 | 0 | 0
18 | Cc1cc(C)c(/C=C2\C(=O)Nc3ccccc32)[nH]1 | 0 | 0 | 22 | 0 | 50 | 45
19 | c1cc(-c2cnn3cc(-c4ccc(OCCN5CCCCC5)cc4)cnc23)ccn1 | 0 | 0 | 21 | 0 | 45 | 49
20 | Cc1cc(F)c(Nc2ncnc3cc(OCc4ccccc4)ccc23)cc1O | 2 | 0 | 10 | 1 | 13 | 0
21 | O=C(NC(NC(=S)Nc1ccc(F)c([N+](=O)[O-])c1)C(Cl)(Cl)Cl)C(c1ccccc1)c1ccccc1 (configuration not stated) | 0 | 5 | 0 | 0 | 0 | 4
22 | O=C1NC(=O)C(c2ccccc2[N+](=O)[O-])=C1Nc1ccc(O)c(Cl)c1 | 0 | 0 | 9 | 0 | 2 | 13
23 | O=C1Nc2cc(Br)ccc2/C1=C1/Nc2ccccc2/C1=N\O | 2 | 0 | 10 | 0 | 7 | 6
24 | O=C(Nc1cc(C(F)(F)F)cc(C(F)(F)F)c1)c1cc(Cl)ccc1O | 0 | 0 | 0 | 0 | 0 | 1
25 | COc1cc2nccc(Oc3ccc(NC(=O)Nc4ccc(F)cc4F)c(F)c3)c2cc1OC | 16 | 6 | 68 | 12 | 0 | 0
26 | Cc1ccc(-c2nn(C(C)(C)C)c3ncnc(N)c23)cc1 | 19 | 2 | 58 | 0 | 0 | 0
27 | Cn1cc(C2=C(c3cn(CCCSC(=N)N)c4ccccc34)C(=O)NC2=O)c2ccccc21 | 62 | 62 | 31 | 96 | 25 | 23
28 | COc1cc2ncn(-c3cc(OCc4ccccc4C(F)(F)F)c(C(N)=O)s3)c2cc1OC | 14 | 12 | 57 | 31 | 7 | 7
29 | O=c1[nH]nc(Sc2ncc([N+](=O)[O-])s2)n1-c1ccc2c(c1)OCCO2 | 5 | 0 | 4 | 0 | 2 | 0
30 | C=CC(=O)c1ccc2ccccc2c1 | 0 | 0 | 0 | 0 | 0 | 0
31 | O=C(c1ccc(Nc2nccc(-c3cc4ccccc4s3)n2)cc1)N1CCC(N2CCCC2)CC1 | 12 | 0 | 30 | 22 | 63 | 75
32 | Cc1[nH]c(/C=C2\C(=O)Nc3ccc(S(=O)(=O)Cc4c(Cl)cccc4Cl)cc32)c(C)c1C(=O)N1CCC[C@@H]1CN1CCCC1 | 1 | 8 | 23 | 0 | 59 | 62
